In patent US9381200B2, “Nitrogen containing compounds” (WOCKHARDT LIMITED, priority 2011, dated 2016):
Converted amounts (≈) assume the structure as drawn. Like-named read-outs stand apart in the source and are kept apart here.

What was measured:
Type in all cases: cell-based
[1] = tested on: E. coli NCTC 13351; assay: Antibacterial activity (MIC), agar dilution per CLSI; conditions: Escherichia coli, NCTC13351, Table 3, E. coli NCTC 13351 expressing ESBL, 16-20 hours, 35±2° C., read-out: MIC
Method in brief: (§1)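 Agar dilution MIC per CLSI: overnight cultures diluted and inoculated onto agar containing doubling dilutions of compound. Growth/no growth read after 16-20 h at 35±2° C in ambient air. Strains express ESBL.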

[2] = tested on: E. coli 7 MP; assay: as above; conditions: Escherichia coli, Table 3, E. coli 7 MP expressing ESBL, read-out: MIC
Method in brief: as §1

[3] = tested on: K penumoniae H 525; assay: Antibacterial activity (MIC) against MDR Gram negative strains; conditions: Table 4; K penumoniae H 525, KPC ESBL, MDR; read-out: MIC
Method: (§2) The biological activity of representative compounds according to the invention against various bacterial strains was investigated. In a typical study, overnight grown bacterial cultures were diluted appropriately and inoculated on the agar media containing doubling dilutions of the test compounds. Observation for growth or no growth was performed after 16-20 hours of incubation at 35±2° C. in ambient air. The overall procedure was performed as per Clinical and Laboratory Standards Institute (CLSI) recommendations (Clinical and Laboratory Standards Institute (CLSI), Performance Standards for Antimicrobial Susceptibility Testing, 20th Informational Supplement, M 100-S20, Volume 30, No. 1, 2010).
(§3) The activities are expressed as MICs (mcg/ml).

[4] = tested on: P. aeruginosa ATCC 27853; assay: as above; conditions: Pseudomonas aeruginosa, ATCC27853; Table 5; P. aeruginosa ATCC 27853; read-out: MIC
Method: as §2, §3

[5] = tested on: E. Coli M 3; assay: as above; conditions: Escherichia coli; Table 5; E. Coli M 3, Class B ESBL, MDR; read-out: MIC
Method: as §2, §3

[6] = tested on: E. Coli W 13351; assay: as above; conditions: Escherichia coli; Table 4; E. Coli W 13351, Class A ESBL, MDR; read-out: MIC
Method: as §2, §3

[7] = tested on: P. aeruginosa Ps 21; assay: as above; conditions: Pseudomonas aeruginosa, PS21; Table 5; P. aeruginosa Ps 21; read-out: MIC
Method: as §2, §3

[8] = tested on: K penumoniae H 523; assay: as above; conditions: Table 4; K penumoniae H 523, KPC ESBL, MDR; read-out: MIC
Method: as §2, §3

[9] = tested on: P. aeruginosa Ps 32; assay: as above; conditions: Pseudomonas aeruginosa, PS32; Table 5; P. aeruginosa Ps 32; read-out: MIC
Method: as §2, §3

[10] = tested on: K penumoniae H 521; assay: as above; conditions: Table 4; K penumoniae H 521, KPC ESBL, MDR; read-out: MIC
Method: as §2, §3

[11] = tested on: E. Coli W 13352; assay: as above; conditions: Escherichia coli; Table 4; E. Coli W 13352, Class A ESBL, MDR; read-out: MIC
Method: as §2, §3

[12] = tested on: E. Coli B 89; assay: as above; conditions: Escherichia coli; Table 4; E. Coli B 89, Class C ESBL, MDR; read-out: MIC
Method: as §2, §3

[13] = tested on: E. Coli H 484; assay: as above; conditions: Escherichia coli; Table 4; E. Coli H 484, Class C ESBL, MDR; read-out: MIC
Method: as §2, §3

[14] = tested on: E. Coli W 13353; assay: as above; conditions: Escherichia coli; Table 4; E. Coli W 13353, Class A ESBL, MDR; read-out: MIC
Method: as §2, §3

[15] = tested on: K. penumoniae S 48; assay: as above; conditions: Table 5; K. penumoniae S 48, Class B ESBL, MDR; read-out: MIC
Method: as §2, §3

[16] = tested on: E. Coli M 44; assay: as above; conditions: Escherichia coli; Table 5; E. Coli M 44, Class B ESBL, MDR; read-out: MIC
Method: as §2, §3

[17] = tested on: E. coli M 50; assay: Antibacterial activity (MIC), agar dilution per CLSI; conditions: Escherichia coli, read-out: MIC
Method in brief: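 Agar dilution per CLSI M100-S20: diluted overnight cultures inoculated onto agar containing doubling dilutions of compound. Growth scored after 16–20 h at 35±2 °C in ambient air. MIC reported in mcg/ml.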

[18] = M50, Table 3, E. coli M 50 expressing ESBL, agar dilution
[19] = M50, Table 4, E. Coli M 50, Class C ESBL, MDR

Structure (SMILES) | MIC [1] | MIC [2] | MIC [3] | MIC [4] | MIC [5] | MIC [6] | MIC [7] | MIC [8] | MIC [9] | MIC [10] | MIC [11] | MIC [12] | MIC [13] | MIC [14] | MIC [15] | MIC [16] | MIC [17, 18] | MIC [17, 19]
O=C(NNC(=O)[C@H]1CC[C@@H]2CN1C(=O)N2OS(=O)(=O)O)C1CCCNC1 (mixture of isomers) [Example 14, trans-sulfuric acid mono-[2-(N′—((RS)-piperidin-3-carbonyl)-hydrazinocarbonyl)-7-oxo-1,6-diaza-bicyclo[3.2.1]oct-6-yl]ester] | 0.5 µg/mL (≈ 1.28 µM) | 2 µg/mL (≈ 5.11 µM) | 0.25 µg/mL (≈ 0.639 µM) | 8 µg/mL (≈ 20.4 µM) | 0.5 µg/mL (≈ 1.28 µM) | 0.5 µg/mL (≈ 1.28 µM) | 16 µg/mL (≈ 40.9 µM) | 0.25 µg/mL (≈ 0.639 µM) | 8 µg/mL (≈ 20.4 µM) | 0.5 µg/mL (≈ 1.28 µM) | 0.5 µg/mL (≈ 1.28 µM) | 0.5 µg/mL (≈ 1.28 µM) | 2 µg/mL (≈ 5.11 µM) | 0.5 µg/mL (≈ 1.28 µM) | 4 µg/mL (≈ 10.2 µM) | 0.25 µg/mL (≈ 0.639 µM) | 0.25 µg/mL (≈ 0.639 µM) | 0.5 µg/mL (≈ 1.28 µM)
N#CCC(=O)NNC(=O)[C@@H]1CC[C@@H]2CN1C(=O)N2OS(=O)(=O)[O-].[Na+] [Example 43, Sodium salt of trans-sulfuric acid mono-[2-(N′-(cyano-acetyl)-hydrazinocarbonyl)-7-oxo-1,6-diaza-bicyclo[3.2.1]oct-6-yl]ester] | 1 µg/mL | 8 µg/mL | 1 µg/mL | > 32 µg/mL | 4 µg/mL | 1 µg/mL | > 32 µg/mL | 1 µg/mL | > 32 µg/mL | 2 µg/mL | 1 µg/mL | 1 µg/mL | 8 µg/mL | 1 µg/mL | 1 µg/mL | 0.5 µg/mL | 2 µg/mL | 1 µg/mL
O=C(NNC(=O)[C@H]1CC[C@@H]2CN1C(=O)N2OS(=O)(=O)O)[C@@H]1CCCCN1 (mixture of isomers) [Example 17, trans-sulfuric acid mono-[2-(N′—((S)-piperidin-2-carbonyl)-hydrazinocarbonyl)-7-oxo-1,6-diaza-bicyclo[3.2.1]oct-6-yl]ester] | 0.5 µg/mL | 2 µg/mL | 0.5 µg/mL | > 32 µg/mL | 0.5 µg/mL | 0.5 µg/mL | > 32 µg/mL | 0.5 µg/mL | > 32 µg/mL | 0.5 µg/mL | 0.5 µg/mL | 0.5 µg/mL | 4 µg/mL | 0.25 µg/mL | 0.5 µg/mL | 0.5 µg/mL | 0.5 µg/mL | 0.5 µg/mL
O=C(CN1CCNCC1)NNC(=O)[C@H]1CC[C@@H]2CN1C(=O)N2OS(=O)(=O)O (relative stereo) [Example 19, trans-sulfuric acid mono-[2-(N′-(piperazin-4-yl-acetyl)-hydrazinocarbonyl)-7-oxo-1,6-diaza-bicyclo[3.2.1]oct-6-yl]ester] | 1 µg/mL (≈ 2.46 µM) | 2 µg/mL (≈ 4.92 µM) | 1 µg/mL (≈ 2.46 µM) | 32 µg/mL (≈ 78.7 µM) | 1 µg/mL (≈ 2.46 µM) | 2 µg/mL (≈ 4.92 µM) | > 32 µg/mL | 1 µg/mL (≈ 2.46 µM) | > 32 µg/mL | 1 µg/mL (≈ 2.46 µM) | 2 µg/mL (≈ 4.92 µM) | 1 µg/mL (≈ 2.46 µM) | 4 µg/mL (≈ 9.84 µM) | 2 µg/mL (≈ 4.92 µM) | 4 µg/mL (≈ 9.84 µM) | 1 µg/mL (≈ 2.46 µM) | 1 µg/mL (≈ 2.46 µM) | 2 µg/mL (≈ 4.92 µM)
N[C@@H]1CN[C@H](C(=O)NNC(=O)[C@H]2CC[C@@H]3CN2C(=O)N3OS(=O)(=O)O)C1 (mixture of isomers) [Example 35, trans-sulfuric acid mono-[2-(N′-[(2S,4S)-4-amino-pyrrolidin-2-carbonyl]-hydrazinocarbonyl)-7-oxo-1,6-diaza-bicyclo[3.2.1]oct-6-yl]ester] | 1 µg/mL | 4 µg/mL | 1 µg/mL | > 32 µg/mL | 1 µg/mL | 1 µg/mL | > 32 µg/mL | 1 µg/mL | 32 µg/mL | 2 µg/mL | 1 µg/mL | 1 µg/mL | 1 µg/mL | 1 µg/mL | 2 µg/mL | 2 µg/mL | 1 µg/mL | 1 µg/mL
O=C(NNC(=O)[C@H]1CCCN1)[C@H]1CC[C@@H]2CN1C(=O)N2OS(=O)(=O)O (mixture of isomers) [Example 30, trans-sulfuric acid mono-[2-(N′—[(R)-pyrrolidin-2-carbonyl]-hydrazinocarbonyl)-7-oxo-1,6-diaza-bicyclo[3.2.1]oct-6-yl]ester] | 16 µg/mL | 32 µg/mL | > 32 µg/mL | > 32 µg/mL | 8 µg/mL | 16 µg/mL | > 32 µg/mL | 8 µg/mL | > 32 µg/mL | 8 µg/mL | 16 µg/mL | 8 µg/mL | 8 µg/mL | 8 µg/mL | > 32 µg/mL | 16 µg/mL | 8 µg/mL | 8 µg/mL

The remaining compounds from weak to strong by MIC [1], led by results:

MIC [1] | MIC [2] | MIC [3] | MIC [4] | MIC [5] | MIC [6] | MIC [7] | MIC [8] | MIC [9] | MIC [10] | MIC [11] | MIC [12] | MIC [13] | MIC [14] | MIC [15] | MIC [16] | MIC [17, 18] | MIC [17, 19] | Structure (SMILES)
2 µg/mL | 4 µg/mL | 2 µg/mL | > 32 µg/mL | 8 µg/mL | 2 µg/mL | > 32 µg/mL | 2 µg/mL | > 32 µg/mL | 4 µg/mL | 2 µg/mL | 2 µg/mL | 16 µg/mL | 2 µg/mL | 2 µg/mL | 1 µg/mL | 1 µg/mL | 2 µg/mL | O=C(NNC(=O)[C@H]1CC[C@@H]2CN1C(=O)N2OS(=O)(=O)O)[C@@H]1C[C@H](F)CN1 (mixture of isomers) [Example 11, trans-sulfuric acid mono-[2-(N′-[(2S,4S)-4-fluoro-pyrrolidin-2-carbonyl]-hydrazinocarbonyl)-7-oxo-1,6-diaza-bicyclo[3.2.1]oct-6-yl]ester]
1 µg/mL (≈ 2.74 µM) | 4 µg/mL (≈ 10.9 µM) | 0.5 µg/mL (≈ 1.37 µM) | 8 µg/mL (≈ 21.9 µM) | 2 µg/mL (≈ 5.47 µM) | 1 µg/mL (≈ 2.74 µM) | 8 µg/mL (≈ 21.9 µM) | 0.5 µg/mL (≈ 1.37 µM) | 16 µg/mL (≈ 43.8 µM) | 1 µg/mL (≈ 2.74 µM) | 1 µg/mL (≈ 2.74 µM) | 1 µg/mL (≈ 2.74 µM) | 2 µg/mL (≈ 5.47 µM) | 1 µg/mL (≈ 2.74 µM) | 1 µg/mL (≈ 2.74 µM) | 0.5 µg/mL (≈ 1.37 µM) | 2 µg/mL (≈ 5.47 µM) | 1 µg/mL (≈ 2.74 µM) | NCCCC(=O)NNC(=O)[C@H]1CC[C@@H]2CN1C(=O)N2OS(=O)(=O)O (relative stereo) [Example 9, trans-sulfuric acid mono-[2-(N′-(4-amino-butanoyl)-hydrazinocarbonyl)-7-oxo-1,6-diaza-bicyclo[3.2.1]oct-6-yl]ester]
0.25 µg/mL (≈ 0.617 µM) | 0.5 µg/mL (≈ 1.23 µM) | 2 µg/mL (≈ 4.93 µM) | > 32 µg/mL | 1 µg/mL (≈ 2.47 µM) | 0.25 µg/mL (≈ 0.617 µM) | > 32 µg/mL | 1 µg/mL (≈ 2.47 µM) | > 32 µg/mL | 1 µg/mL (≈ 2.47 µM) | 0.5 µg/mL (≈ 1.23 µM) | 0.5 µg/mL (≈ 1.23 µM) | 1 µg/mL (≈ 2.47 µM) | 0.5 µg/mL (≈ 1.23 µM) | 2 µg/mL (≈ 4.93 µM) | 0.5 µg/mL (≈ 1.23 µM) | 0.25 µg/mL (≈ 0.617 µM) | 1 µg/mL (≈ 2.47 µM) | O=C(NNC(=O)[C@@H]1CC[C@@H]2CN1C(=O)N2OC(F)(F)C(=O)O)[C@@H]1CCCNC1 [Example 5, trans-difluoro-{7-oxo-2-[N′—((R)-piperidin-3-carbonyl)-hydrazinocarbonyl]-1,6-diaza-bicyclo[3.2.1]-oct-6-yloxy}-acetic acid]
